Source: ChEMBL document CHEMBL1147380, “Studies on the acetogenins of Formosan annonaceous plants. II. Cytotoxic acetogenins from Annona reticulata” (1993)
≈ marks a conversion by molar mass, not a printed value.

Key:
Assay type in all cases: functional
HT-29 = test: Cytotoxicity against human HT-29 cells; details: for EC50: Homo sapiens, HT-29, read-out: ED50 (the source's name)
KB = test: Cytotoxicity against human KB cells; details: for EC50: Homo sapiens, KB, read-out: ED50 (the source's name)
P388 = test: Cytotoxicity against mouse P388 cells; details: for EC50: Mus musculus, P388, read-out: ED50 (the source's name)
A549 = test: Cytotoxicity against human A549 cells; details: for EC50: Homo sapiens, A549, read-out: ED50 (the source's name)
MCF7 = test: Cytotoxicity against human MCF7 cells; details: for EC50: Homo sapiens, MCF7, read-out: ED50 (the source's name)

Structure (SMILES) | EC50 (HT-29) | EC50 (KB) | EC50 (P388) | EC50 (A549) | also measured
CCCCCCCCCCCC[C@H](O)[C@@H]1CC[C@@H]([C@@H](O)CCCCCC(=O)CCCCC(O)CC2=CC(C)OC2=O)O1 (some centres not stated) | 1.32 µg/mL (≈ 2.22 µM) | 4.66 µg/mL (≈ 7.83 µM) | 0.2 µg/mL (≈ 0.336 µM) | 0.01 µg/mL (≈ 0.0168 µM) | –
CCCCCCCCCC[C@@H](O)[C@@H]1CC[C@@H]([C@@H]2CC[C@@H]([C@H](O)CCCCCCCCCC(O)CC3=CC(C)OC3=O)O2)O1 (stereo in doubt; 7) [BULLATACIN] | – | 10 µg/mL (≈ 16.4 µM) | – | 0.001 µg/mL (≈ 0.00164 µM) | –
CCCCCCCCCC[C@@H](O)[C@@H]1CC[C@@H]([C@@H]2CC[C@@H]([C@H](O)CCCCCCCCCC(O)CC3=CC(C)OC3=O)O2)O1 (stereo in doubt; 13) [BULLATACIN] | – | – | – | – | ED50 (HT-29): <1 ×10⁻³ ug/ml; ED50 (MCF7): <1 ×10⁻⁵ ug/ml; ED50 (A549): <1 ×10⁻⁵ ug/ml
CCCCCCCCCCCC[C@H](O)[C@@H]1CC[C@@H]([C@@H](O)CC(O)CCCCC(O)CCCC(O)CC2=CC(C)OC2=O)O1 (some centres not stated) [ANNOMONICIN] | – | 2.29 µg/mL (≈ 3.74 µM) | 0.24 µg/mL (≈ 0.392 µM) | – | –
CCCCCCCCCCCC[C@@H](O)[C@H]1CC[C@H]([C@H](O)CCCCC(=O)CCCCC[C@@H](O)CC2=C[C@H](C)OC2=O)O1 [ANNONACINONE] | 1 µg/mL (≈ 1.68 µM) | 0.01 µg/mL (≈ 0.0168 µM) | – | 0.1 µg/mL (≈ 0.168 µM) | ED50 (P388): 1 ×10⁻⁶ ug/ml
CCCCCCCCCCCC[C@@H](O)[C@H]1CC[C@H]([C@H](O)CCCC[C@H](O)CCCCC[C@@H](O)CC2=CC(C)OC2=O)O1 (some centres not stated) [ANNONACIN] | 3 µg/mL (≈ 5.03 µM) | – | – | 0.001 µg/mL (≈ 0.00168 µM) | ED50 (KB): 1 ×10⁻⁴ ug/ml; ED50 (P388): 1 ×10⁻⁵ ug/ml
CCCCCCCCCCCC[C@H](O)[C@@H]1CC[C@@H]([C@@H](O)CCCCCC(O)CCCCC(O)CC2=CC(C)OC2=O)O1 (some centres not stated) [ANNORETICUIN] | 2.28 µg/mL (≈ 3.82 µM) | 3.37 µg/mL (≈ 5.65 µM) | 1 µg/mL (≈ 1.68 µM) | 0.4 µg/mL (≈ 0.67 µM) | –
CCCCCCCCCCCC[C@H](O)[C@@H]1CC[C@@H]([C@@H](O)CCCCC(=O)CCCCCC2CC(CC(C)=O)C(=O)O2)O1 (some centres not stated) [ISOANNONACINONE] | 0.009 µg/mL (≈ 0.0151 µM) | – | 0.5 µg/mL (≈ 0.841 µM) | 0.07 µg/mL (≈ 0.118 µM) | –
CCCCCCCCCCCC[C@H](O)[C@@H]1CC[C@@H]([C@@H](O)CCCCC(O)CCCCCC2CC(CC(C)=O)C(=O)O2)O1 (some centres not stated) [ISOANNONACIN] | 0.002 µg/mL (≈ 0.00335 µM) | – | 3 µg/mL (≈ 5.03 µM) | 0.02 µg/mL (≈ 0.0335 µM) | –
CCCCCCCCCCCC[C@H](O)[C@@H]1CC[C@@H]([C@@H](O)CCCCCC(O)CCCCC2CC(CC(C)=O)C(=O)O2)O1 (some centres not stated) [ISOANNORETICUIN] | 3.06 µg/mL (≈ 5.13 µM) | 6.96 µg/mL (≈ 11.7 µM) | 3.6 µg/mL (≈ 6.03 µM) | 0.4 µg/mL (≈ 0.67 µM) | –
CCCCCCCCCCCC[C@@H](O)[C@H]1CC[C@H]([C@H](O)CCCCCCCCCCCCC2=C[C@H](C)OC2=O)O1 [REL-SOLAMIN] | – | 0.3 µg/mL (≈ 0.531 µM) | 0.04 µg/mL (≈ 0.0708 µM) | – | –
CCCCCCCCCCCC[C@H](O)[C@@H]1CC[C@@H]([C@@H](O)CCCCCCCCCCCCCCC2=CC(C)OC2=O)O1 (some centres not stated) [RETICULATACIN] | 4.66 µg/mL (≈ 7.86 µM) | – | – | 3.49 µg/mL (≈ 5.89 µM) | EC50 (MCF7): 2.91 µg/mL (≈ 4.91 µM)
CCCCCCCCCCCC[C@H](O)[C@@H]1CC[C@@H]([C@@H](O)CCCCCC(=O)CCCCC2CC(CC(C)=O)C(=O)O2)O1 (some centres not stated) [SQUAMONE] | – | 1.5 µg/mL (≈ 2.52 µM) | 5.6 µg/mL (≈ 9.41 µM) | 1.34 µg/mL (≈ 2.25 µM) | EC50 (MCF7): 2.14 µg/mL (≈ 3.6 µM)
